Where two headings read alike, the source gives them in different places.
Legend:
[1] = system: HeLa (human cervical carcinoma); assay: MTT cytotoxicity assay, HeLa
Protocol: (§1) The SI value is the ratio of IC50 of normal cell (MRC-5) and IC50 of cancer cell line.
(§2) Cytotoxic activity for adhesive cell lines including HepG2, HeLa, HuCCA-1, A549, H69AR, KB, T47D, MDA-MB-231, and MRC-5 cell lines were evaluated with the 3-(4,5-dimethylthiazol-2-yl)-2,5-diphenyltetrazoliumbromide (MTT) assay. For the non-adhesive MOLT-3 cell line, the cytotoxicity was assessed using the 2,3-bis-(2-methoxy-4-nitro-5-sulphenyl-(2H)-tetrazolium-5-carboxanilide (XTT) assay. Etoposide and doxorubicin were used as positive controls (Table 4)

[2] = system: HuCCA-1 (human chlolangiocarcinoma); assay: MTT cytotoxicity assay, HuCCA-1
Protocol: as §1, §2

[3] = system: H69AR (multidrug resistance small-cell lung cancer); assay: MTT cytotoxicity assay, H69AR; assay type: cell-based; conditions: Homo sapiens, H69AR cell line
Protocol: (§3) Cytotoxic activity for adhesive cell lines including HepG2, HeLa, HuCCA-1, A549, H69AR, KB, T47D, MDA-MB-231, and MRC-5 cell lines were evaluated with the 3-(4,5-dimethylthiazol-2-yl)-2,5-diphenyltetrazoliumbromide (MTT) assay [25, 26]. For the non-adhesive MOLT-3 cell line, the cytotoxicity was assessed using the 2,3-bis-(2-methoxy-4-nitro-5-sulphenyl-(2H)-tetrazolium-5-carboxanilide (XTT) assay [27]. Etoposide and doxorubicin were used as positive controls (Table 4)

[4] = system: KB (human epidermoid carcinoma in the mouth); assay: MTT cytotoxicity assay, KB; assay type: cell-based; conditions: KB cell line
Protocol: as §1, §2

[5] = system: T47D (hormone dependent breast cancer); assay: MTT cytotoxicity assay, T47D; assay type: cell-based; conditions: Homo sapiens, T47D cell line
Protocol: as §3

[6] = system: MDA-MB-231 (hormone independent breast cancer); assay: MTT cytotoxicity assay, MDA-MB-231
Protocol: as §1, §2

HepG2 (hepatocarcinoma) = assay: MTT cytotoxicity assay, HepG2
Protocol: as §1, §2

[7] = system: A549 (non-small-cell lung cancer); assay: MTT cytotoxicity assay, A549
Protocol: as §1, §2

[8] = MTT cytotoxicity assay, MRC-5 normal cells; conditions: human
Protocol: as §1, §2

[9] = system: MOLT-3 (acute lymphoblastic leukemia); assay: XTT cytotoxicity assay, MOLT-3; conditions: for selectivity index (SI), MOLT-3: ratio of IC50 of normal cell (MRC-5) and IC50 of MOLT-3
Protocol: as §1, §2

[10] = system: L1210 (mouse lymphocytic leukemia); conditions: read-out: Cytotoxicity IC50, L1210, cited from earlier work
[11] = system: KB (mouth epidermal carcinoma); parameters: method as in PMID 8149454; conditions: previously reported; read-out: Cytotoxicity IC50, KB; cited from earlier work
A549 cells = system: A549 cells; parameters: method as in PMID 12662110; conditions: reported in the literature; read-out: Cytotoxicity IC50, A549; cited from earlier work
[12] = system: MRC-5 (normal embryonic lung cell); assay: MTT cytotoxicity assay, MRC-5 normal cells; conditions: read-out: Cytotoxicity IC50, MRC-5; MRC-5 normal cell line, MTT assay
Protocol: as §1, §2

[13] = Homo sapiens, HeLa, read-out: Cytotoxicity IC50, HeLa, HeLa cell line, MTT assay
[14] = Homo sapiens, HuCC-A1, read-out: Cytotoxicity IC50, HuCCA-1, HuCCA-1 cell line, MTT assay
[15] = Homo sapiens, MDA-MB-231, read-out: Cytotoxicity IC50, MDA-MB-231, MDA-MB-231 cell line, MTT assay
[16] = Homo sapiens, HepG2, read-out: Cytotoxicity IC50, HepG2, HepG2 cell line, MTT assay
[17] = Homo sapiens, A549, read-out: Cytotoxicity IC50, A549, A549 cell line, MTT assay
[18] = MRC-5 cells (normal embryonic lung cells), Cytotoxicity IC50, MRC-5, MRC-5 normal cell line, MTT assay
[19] = Homo sapiens, MOLT-3, read-out: Cytotoxicity IC50, MOLT-3, MOLT-3 cell line, XTT assay
[20] = Homo sapiens, MOLT-3, read-out: Cytotoxicity IC50, MOLT-3
[21] = Homo sapiens, HepG2, read-out: Cytotoxicity IC50, HepG2
[22] = Homo sapiens, HeLa, read-out: Cytotoxicity IC50, HeLa
[23] = Homo sapiens, HuCC-A1, read-out: Cytotoxicity IC50, HuCCA-1
[24] = Homo sapiens, A549, read-out: Cytotoxicity IC50, A549
[25] = Homo sapiens, MDA-MB-231, read-out: Cytotoxicity IC50, MDA-MB-231
[26] = read-out: Cytotoxicity IC50, HeLa, HeLa cell line, MTT assay
[27] = read-out: Cytotoxicity IC50, MDA-MB-231, MDA-MB-231 cell line, MTT assay

Row | Compound | IC50 [1, 13] | IC50 [2, 14] | IC50 [6, 15] | IC50 (HepG2 (hepatocarcinoma); [16]) | IC50 [7, 17] | IC50 [9, 19] [µM] | further results
1 | CC1(C)CCC[C@@]2(C)C1CC[C@]1(C)C2C[C@@H](O)[C@]2(C)C3COC(=O)C3=CCC12 (stereo partly drawn) [Compound 18, 12-epi-O-deacetyl-19-deoxyscalarin] | 23.3 µM | 41.5 µM | 5.96 µM |  |  |  | IC50 [3]: 57 µM; IC50 [4]: 6.99 µM; IC50 [5]: 5.18 µM
2 | COc1cccc2c1C(=O)c1c(O)c3c(c(O)c1C2=O)C[C@@](O)(C(=O)CO)C[C@@H]3O[C@H]1C[C@H](N)[C@H](O)[C@H](C)O1 [Doxorubicin, reference compound] | 0.19 µM | 0.4 ± 0.03 µM | 1.64 ± 0.17 µM | 0.36 ± 0.05 µM | 0.35 ± 0.02 µM |  | IC50 [4]: 1.64 ± 0.15 µM; IC50 [8, 18]: 3.16 ± 0.1 µM
3 | COC(=O)c1cc2c(cn1)[nH]c1ccc(O)cc12 [Compound 23, variabine B] | > 50 µg/mL | > 50 µg/mL |  | > 50 µg/mL | > 50 µg/mL | 78 | 
4 | CC(=O)O[C@@H]1CC2[C@@]3(C)CCCC(C)(C)C3CC[C@@]2(C)C2CC=C3C(=O)OC(O)C3[C@]21C (stereo partly drawn) [Compound 19, 12-epi-scalarin] | 65.3 µM | 60.8 µM |  | 75.5 µM | 60.8 µM | 13.8 | 
5 | CC1=C(CC/C(C)=C/CCC2=CC[C@H](C3=CC(=O)O[C@H]3O)O[C@H]2O)C(C)(C)CCC1 [Compound 11, manoalide] |  |  |  |  |  |  | IC50 [9, 20]: 17.4 µM; IC50 (HepG2 (hepatocarcinoma); [21]): > 50 µg/mL; IC50 [1, 22]: 87 µM; IC50 [2, 23]: 84.5 µM; IC50 [7, 24]: > 50 µg/mL; IC50 [6, 25]: > 50 µg/mL; IC50 ([10]; previously reported): 0.053 µM; IC50 [11]: 0.63 µM
6 | CC1=C(CC/C(C)=C/CC/C(=C/CC2OC(=O)C=C2CO)CO)C(C)(C)CCC1 (stereo not drawn) [Compound 13, (6Z)-neomanoalide] | 59.3 µM | 94.7 µM | 92 µM | 88.7 µM | 114 µM | 34.1 | IC50 [10]: 13.9 µM
7 | COC1OC(=O)C=C1C(O)CC=C(C=O)CCC=C(C)CCC1=C(C)CCCC1(C)C (stereo not drawn) [Compound 3, seco-manoalide-25-methyl ether] | 20 µM | 24.7 µM | 40.1 µM | 27.9 µM | 41.1 µM | 15.8 | 
8 | CC1=C(CC/C(C)=C/CC/C(=C\CC2OC(=O)C=C2CO)CO)C(C)(C)CCC1 (stereo not drawn) [Compound 12, (6E)-neomanoalide] | 79.2 µM | 119 µM | > 50 µg/mL | > 50 µg/mL | > 50 µg/mL | 37.8 | IC50 [10]: 24.4 µM
9 | CC1(C)CCC[C@@]2(C)C1CC[C@]1(C)C2C[C@@H](O)[C@]2(C)C3C(=CCC12)C(=O)OC3O (stereo partly drawn) [Compound 20, 12-O-deacetyl-12-epi-scalarin] |  | 87.1 µM |  | 27.4 µM | 73.4 µM | 7.64 | selectivity index (SI), MOLT-3 [9]: 9; IC50 [8, 18]: 71 µM; IC50 (A549 cells): 36.8 µM
10 | CC1=C(CC[C@@](C)(O)[C@@H]2CCC(=O)O2)C(C)(C)CCC1 [Compound 16, cavernosine] | 77.5 µM | > 50 µg/mL | > 50 µg/mL | > 50 µg/mL | > 50 µg/mL | 124 | 
11 | CC1=C(CC/C(C)=C/CC/C(=C/C[C@@H](O)C2=CC(=O)OC2)CO)C(C)(C)CCC1 [Compound 10, luffariolide B] | 78.7 µM | > 50 µg/mL | > 50 µg/mL | > 50 µg/mL | > 50 µg/mL | 35.5 | IC50 [10]: 3.23 µM
12 | 4-((2R)-2-hydroxy-16-methyloctadecyl)furan-2(5H)-one [Compound 5] |  |  |  |  |  |  | IC50 [9]: 31.8 µM; IC50 (HepG2 (hepatocarcinoma)): 107 µM; IC50 [1]: 28.8 µM; IC50 [2]: 65.6 µM; IC50 [7]: 57.2 µM; IC50 [6]: 89.3 µM
13 | CC(=O)O[C@H]1C[C@H]2[C@]3(C)CC[C@H]4C(C)(C)CCC[C@]4(C)[C@H]3C[C@@H](O)[C@]2(C)c2cocc21 [Compound 15, scalarafuran] | 63.1 µM | 49.1 µM | 14 µM |  |  |  | IC50 [3]: 51.4 µM; IC50 [4]: 58.4 µM; IC50 [5]: 28 µM
14 | COc1cc([C@@H]2c3cc4c(cc3[C@@H](O[C@@H]3O[C@@H]5CO[C@@H](C)O[C@H]5[C@H](O)[C@H]3O)[C@H]3COC(=O)[C@H]23)OCO4)cc(OC)c1O [Etoposide, reference compound] |  |  |  |  |  | 0.04 ± 0.01 | 
15 | COC1OC(C2=CC(=O)OC2O)CC=C1CCC=C(C)CCC1=C(C)CCCC1(C)C (stereo not drawn) [Compound 9, 24-O-methylmanoalide] |  |  |  |  |  |  | selectivity index (SI), MOLT-3 [9]: 8; IC50 ([9]; read-out: Cytotoxicity IC50, MOLT-3, MOLT-3 cell line, XTT assay): 1.3 µM; IC50 (HepG2 (hepatocarcinoma); read-out: Cytotoxicity IC50, HepG2, HepG2 cell line, MTT assay): 27.9 µM; selectivity index (SI), HeLa ([1]; ratio of IC50 of normal cell (MRC-5) and IC50 of HeLa): 7; IC50 [1, 26]: 1.51 µM; IC50 ([2]; read-out: Cytotoxicity IC50, HuCCA-1, HuCCA-1 cell line, MTT assay): 8.6 µM; IC50 ([7]; read-out: Cytotoxicity IC50, A549, A549 cell line, MTT assay): 12 µM; IC50 [6, 27]: 18.6 µM; IC50 [12]: 10.8 µM
16 | COC1OC(C2=CC(=O)OC2O)CC=C1CCC=C(C)CCC1=C(C)CCCC1(C)C (stereo not drawn) [Compound 8, 24-O-methylmanoalide] |  | 11 µM |  | 53.5 µM | 16.8 µM | 1.77 | selectivity index (SI), MOLT-3 [9]: 7; IC50 [1, 26]: 8.42 µM; IC50 [6, 27]: 39.5 µM; IC50 [8, 18]: 13 µM
17 | CC(=O)O[C@@H]1CC2[C@@]3(C)CCCC(C)(C)C3CC[C@@]2(C)C2CCC3=C(C(=O)OC3)[C@]21C (stereo partly drawn) [Compound 17, 12-acetylscalarolide] | 63.1 µM | 60.8 µM | 60.8 µM |  |  |  | IC50 [3]: 107 µM; IC50 [4]: 63.1 µM; IC50 [5]: 42.1 µM
18 | CC1=C(CC/C(C)=C/CC/C(C=O)=C\C[C@@H](O)C2=CC(=O)OC2O)C(C)(C)CCC1 (stereo partly drawn) [Compound 14, seco-manoalide] |  |  |  |  |  |  | IC50 [9, 20]: 6.68 µM; IC50 (HepG2 (hepatocarcinoma); [21]): 102 µM; IC50 [1, 22]: 21.8 µM; IC50 [2, 23]: 47.4 µM; IC50 [7, 24]: 58.1 µM; IC50 [6, 25]: 84.1 µM; IC50 [8]: 17.5 µM
19 | CC(=O)OC/C(=C\CC1OC(=O)C=C1CO)CC/C=C(\C)CCC1=C(C)CCCC1(C)C (stereo not drawn) [Compound 7, (6Z)-neomanoalide-24-acetate] | 88 µM | > 50 µg/mL | > 50 µg/mL | > 50 µg/mL | > 50 µg/mL | 40.1 | 

From publication PMC6316393, “Cytotoxic Sesterterpenes from Thai Marine Sponge Hyrtios erectus” (Marine Drugs, 2018)
